Measurements taken from patent US20040024024A1, “Aromatic sulfone hydroxamates and their use as protease inhibitors” (priority 2001, published 2004).
pIC50: −log10 of the molar value.

Assays:
Human recombinant MMP-13 = molecular target: T1, Human recombinant MMP-13 (Homo sapiens, UniProt P45452); assay: In vitro MMP inhibition, IC50 determination (fluorogenic substrate I); assay type: biochemical
T1 construct: made in house; host or cells: baculovirus / insect cells
Procedure, shortened: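 Fluorescence at 415 nm (excitation 328 nm) reports Gly-Leu cleavage of 4 μM quenched methoxycoumarin peptide substrate I. Human recombinant MMP-13, activated by trypsin or APMA, was incubated at room temperature with varied inhibitor concentrations in pH 7.5 Tris/NaCl/CaCl2 buffer; IC50 derived from reduced fluorescence.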

Human recombinant MMP-2 = molecular target: T2, Human recombinant MMP-2 (Homo sapiens, UniProt P08253); assay: as above; assay type: biochemical
T2 construct: made in house; host or cells: MMP-2-transfected p2AHT2 cells
T2 sequence (P08253 110-660): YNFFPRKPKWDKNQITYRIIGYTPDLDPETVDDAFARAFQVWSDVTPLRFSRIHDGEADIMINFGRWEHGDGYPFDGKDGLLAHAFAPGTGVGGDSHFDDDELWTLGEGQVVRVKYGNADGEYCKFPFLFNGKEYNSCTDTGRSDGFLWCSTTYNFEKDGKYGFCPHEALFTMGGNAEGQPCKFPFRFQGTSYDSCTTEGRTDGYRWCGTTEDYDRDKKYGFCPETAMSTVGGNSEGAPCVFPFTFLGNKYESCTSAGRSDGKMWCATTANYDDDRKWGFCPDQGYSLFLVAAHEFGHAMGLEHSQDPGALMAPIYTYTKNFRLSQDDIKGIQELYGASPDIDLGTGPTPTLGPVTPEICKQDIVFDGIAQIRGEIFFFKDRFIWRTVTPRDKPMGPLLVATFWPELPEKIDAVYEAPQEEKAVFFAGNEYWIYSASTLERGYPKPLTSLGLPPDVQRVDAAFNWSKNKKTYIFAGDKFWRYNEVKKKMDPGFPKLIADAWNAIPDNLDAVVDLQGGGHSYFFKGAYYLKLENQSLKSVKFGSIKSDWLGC
Procedure, shortened: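 IC50 was derived from the concentration-dependent fall in fluorescence (ex 328, em 415 nm) on Gly-Leu cleavage of 4 μM MCA/Dpa-quenched substrate I. Assays ran at room temperature in pH 7.5 Tris/NaCl/CaCl2/Brij buffer with MMP-2 activated by trypsin or APMA; inhibitors were diluted from 1% DMSO stocks.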

[1] = value outside parentheses (Ki in parenthesis)

SMILES	pIC50 (Human recombinant MMP-13; value outside parenthesis)	pIC50 (Human recombinant MMP-2; value outside parenthesis)	pIC50 (Human recombinant MMP-13; [1])	pIC50 (Human recombinant MMP-2; [1])	further results
COc1ccc(C(=O)N(C)CCCOc2ccc(S(=O)(=O)C3(C(=O)NO)CCOCC3)cc2)cc1 [Example 205]	7.75	5.32	–	–	–
O=C(NCCCOc1ccc(S(=O)(=O)C2(C(=O)NO)CCOCC2)cc1)c1cc2ccccc2o1 [Example 101]	9.70	7.74	–	–	–
Cc1cc(C)nc(SCCOc2ccc(S(=O)(=O)C3(C(=O)NO)CCOCC3)cc2)n1 [Example 283]	7.53	6.73	–	–	–
CC(=O)c1cccc(CCCOc2ccc(S(=O)(=O)C3(C(=O)NO)CCOCC3)cc2)c1 [Example 586]	–	–	–	–	pIC50 (Human recombinant MMP-13; value outside parentheses): 9.22; pIC50 (Human recombinant MMP-2; value outside parentheses): 8.00
COCC(C)(C)COc1ccc(S(=O)(=O)C2(C(=O)NO)CCOCC2)cc1 [Example 455]	–	–	6.16	6.05	–
O=C(Cc1nn[nH]n1)NCCOc1ccc(S(=O)(=O)C2(C(=O)NO)CCOCC2)cc1 [Example 564]	–	–	–	–	pIC50 (Human recombinant MMP-13; value outside parentheses): 7.71; pIC50 (Human recombinant MMP-2; value outside parentheses): 6.84
O=C(NO)C1(S(=O)(=O)c2ccc(OCCCCCc3ccc4ccccc4c3)cc2)CCOCC1 [Example 464]	–	–	8.85	7.34	–
COc1ccc(S(=O)(=O)C[C@@H](C)COc2ccc(S(=O)(=O)C3(C(=O)NO)CCOCC3)cc2)cc1 [Example 431]	–	–	8.40	6.94	–
O=C(Cc1nnn(Cc2ccccc2)n1)NCCOc1ccc(S(=O)(=O)C2(C(=O)NO)CCOCC2)cc1 [Example 565]	–	–	–	–	pIC50 (Human recombinant MMP-13; value outside parentheses): 8.80; pIC50 (Human recombinant MMP-2; value outside parentheses): 7.85
O=C(NCCOc1ccc(S(=O)(=O)C2(C(=O)NO)CCOCC2)cc1)c1ccc(-c2ccccc2)cc1 [Example 604]	–	–	–	–	pIC50 (Human recombinant MMP-13; value outside parentheses): 8.48; pIC50 (Human recombinant MMP-2; value outside parentheses): 7.44
CC(C)Cc1cccc(CCCOc2ccc(S(=O)(=O)C3(C(=O)NO)CCOCC3)cc2)c1 [Example 640]	–	–	–	–	pIC50 (Human recombinant MMP-13; value outside parentheses): 7.98; pIC50 (Human recombinant MMP-2; value outside parentheses): 6.49
COc1ccc(C(=O)NCCOc2ccc(S(=O)(=O)C3(C(=O)NO)CCOCC3)cc2)cc1 [Example 393]	–	–	7.35	7.30	–
COc1ccc2cc(C(=O)CCCCOc3ccc(S(=O)(=O)C4(C(=O)NO)CCOCC4)cc3)ccc2c1 [Example 328]	–	–	> 10.00	7.21	–
CCCCc1ccc(N2CCN(CCCOc3ccc(S(=O)(=O)C4(C(=O)NO)CCOCC4)cc3)C2=O)cc1 [Example 192]	7.81	5.90	–	–	–
O=C(NCCCOc1ccc(S(=O)(=O)C2(C(=O)NO)CCOCC2)cc1)c1ccc([N+](=O)[O-])cc1 [Example 369]	–	–	8.82	6.81	–
O=C(CCCOc1ccc(S(=O)(=O)C2(C(=O)NO)CCOCC2)cc1)N1CCc2ccccc21 [Example 577]	–	–	–	–	pIC50 (Human recombinant MMP-13; value outside parentheses): 8.92; pIC50 (Human recombinant MMP-2; value outside parentheses): 7.32
CC(C)c1ccc(N2CCN(CCCOc3ccc(S(=O)(=O)C4(C(=O)NO)CCOCC4)cc3)C2=O)cc1 [Example 186]	7.87	6.21	–	–	–
COC(=O)c1ccccc1S(=O)(=O)N1CC(Oc2ccc(S(=O)(=O)C3(C(=O)NO)CCOCC3)cc2)C1 [Example 482]	–	–	7.40	5.48	–
O=C(O)CCCOc1ccc(S(=O)(=O)C2(C(=O)NO)CCOCC2)cc1 [Example 273]	6.52	6.00	–	–	–
CN(C)c1ccc(C(=O)NCCCCOc2ccc(S(=O)(=O)C3(C(=O)NO)CCOCC3)cc2)cc1 [Example 397]	–	–	7.85	8.52	–
CC(C)(C)c1ccc(C(=O)NCCCOc2ccc(S(=O)(=O)C3(C(=O)NO)CCOCC3)cc2)cc1 [Example 374]	–	–	8.10	6.10	–
CCOCC(C)(C)COc1ccc(S(=O)(=O)C2(C(=O)NO)CCOCC2)cc1 [Example 456]	–	–	6.46	6.37	–
Cn1cccc1C(=O)NCCCOc1ccc(S(=O)(=O)C2(C(=O)NO)CCOCC2)cc1 [Example 391]	–	–	8.15	6.05	–

SMILES	pIC50 (Human recombinant MMP-13; value outside parenthesis)	pIC50 (Human recombinant MMP-2; value outside parenthesis)	pIC50 (Human recombinant MMP-13; [1])	pIC50 (Human recombinant MMP-2; [1])	further results
Cc1cc(C)c(C(=O)NCCCOc2ccc(S(=O)(=O)C3(C(=O)NO)CCOCC3)cc2)c(C)c1 [Example 370]	–	–	7.43	6.05	–
COCCN1CCC(C(=O)NO)(S(=O)(=O)c2ccc(OCCCN3C(=O)[C@@H](C)N(c4ccccc4)C3=O)cc2)CC1 [Example 108]	7.70	6.36	–	–	–
COc1ccccc1C(=O)NCCCOc1ccc(S(=O)(=O)C2(C(=O)NO)CCOCC2)cc1 [Example 363]	–	–	8.15	6.37	–
COc1ccc(C(=O)NCCCNc2ccc(S(=O)(=O)C3(C(=O)NO)CCOCC3)cc2)cc1 [Example 358]	–	–	7.84	6.11	–
CC(C)CCc1cccc(CCCOc2ccc(S(=O)(=O)C3(C(=O)NO)CCOCC3)cc2)c1 [Example 96]	7.82	7.41	–	–	–
O=C(NO)C1(S(=O)(=O)c2ccc(OCCCc3csc(-c4ccccc4)n3)cc2)CCOCC1 [Example 107]	8.26	7.47	–	–	–
O=C1N(CCCOc2ccc(S(=O)(=O)C3(C(=O)NO)CCOCC3)cc2)CCN1c1ccccc1 [Example 196]	7.94	7.49	–	–	–
COc1cc(CCCOc2ccc(S(=O)(=O)C3(C(=O)NO)CCOCC3)cc2)cc(OC)c1 [Example 585]	–	–	–	–	pIC50 (Human recombinant MMP-13; value outside parentheses): 8.40; pIC50 (Human recombinant MMP-2; value outside parentheses): 7.07
CC(C)(C(=O)NCCCOc1ccc(S(=O)(=O)C2(C(=O)NO)CCOCC2)cc1)c1ccccc1 [Example 404]	–	–	7.82	6.60	–
O=C(NCCOc1ccc(S(=O)(=O)C2(C(=O)NO)CCOCC2)cc1)c1ccc(-c2cc(C(F)(F)F)ccc2Cl)o1 [Example 611]	–	–	–	–	pIC50 (Human recombinant MMP-13; value outside parentheses): 7.87; pIC50 (Human recombinant MMP-2; value outside parentheses): 6.13
O=C(CCCOc1ccc(S(=O)(=O)C2(C(=O)NO)CCN(C3CC3)CC2)cc1)C1CCC(O)(c2ccc(Cl)cc2)CC1 (centres unmarked) [Example 255]	8.72	7.29	–	–	–
C[C@@H]1C(=O)N(CCCOc2ccc(S(=O)(=O)C3(C(=O)NO)CCOCC3)cc2)C(=O)N1c1ccc(OC(F)(F)F)cc1 [Example 136]	8.36	6.64	–	–	–
COCCN1CCC(C(=O)NO)(S(=O)(=O)c2ccc(OCCCn3cc(-c4ccc(F)cc4)cn3)cc2)CC1 [Example 222]	7.88	6.86	–	–	–
CN(C)c1c(F)cc(-c2noc(CCCOc3ccc(S(=O)(=O)C4(C(=O)NO)CCOCC4)cc3)n2)cc1F [Example 251]	8.27	6.74	–	–	–
CCOc1ccc(-c2nnn(CCCOc3ccc(S(=O)(=O)C4(C(=O)NO)CCN(CCOC)CC4)cc3)n2)cc1 [Example 156]	9.00	7.49	–	–	–
O=C(NCCCOc1ccc(S(=O)(=O)C2(C(=O)NO)CCOCC2)cc1)c1ccccc1 [Example 417]	–	–	8.59	6.50	–
COc1ccc(C(=O)NCCCCOc2ccc(S(=O)(=O)C3(C(=O)NO)CCOCC3)cc2)cc1 [Example 396]	–	–	8.40	8.40	–
COc1ccc(C(=N)NCCCOc2ccc(S(=O)(=O)C3(C(=O)NO)CCOCC3)cc2)cc1 [Example 588]	–	–	–	–	pIC50 (Human recombinant MMP-13; value outside parentheses): 7.82; pIC50 (Human recombinant MMP-2; value outside parentheses): 7.02
COc1cc2c(cc1OC)CN(CCCCOc1ccc(S(=O)(=O)C3(C(=O)NO)CCOCC3)cc1)C(C)C2 (centres unmarked) [Example 337]	–	–	7.91	7.38	–
O=C(NCCSc1ccc(S(=O)(=O)C2(C(=O)NO)CCOCC2)cc1)c1ccc(-c2ccc(O)cc2)cc1 [Example 605]	–	–	–	–	pIC50 (Human recombinant MMP-13; value outside parentheses): 8.42; pIC50 (Human recombinant MMP-2; value outside parentheses): 7.36
O=C1CN(c2ccc(OC(F)(F)F)cc2)C(=O)N1CCCOc1ccc(S(=O)(=O)C2(C(=O)NO)CCN(C3CC3)CC2)cc1 [Example 133]	8.37	7.07	–	–	–
CCCCOc1ccc(OCCCOc2ccc(S(=O)(=O)C3(C(=O)NO)CCOCC3)cc2)cc1 [Example 446]	–	–	8.18	7.12	–
CC(C)N(Cc1ccc(C(=O)CCCCOc2ccc(S(=O)(=O)C3(C(=O)NO)CCOCC3)cc2)cc1)C(C)C [Example 344]	–	–	8.34	7.90	–
